Measurements: ChEMBL document CHEMBL1201862, “PubChem BioAssay data set” (2004)
Values belong to the molecule of their own block, whether it stands above or below them. Active and inactive are the calls of the source.

How the values were obtained:
[1] = target: Dual specificity protein phosphatase 6 (Rattus norvegicus, UniProt Q64346); assay: inhibition of rat DUSP6 enzyme activity – biochemical, in vitro, primary screen (AID 425)
[2] = target: T1, Tyrosine-protein phosphatase non-receptor type 22 (Homo sapiens, UniProt Q9Y2R2); assay type: functional
T1 sequence (Q9Y2R2 whole entry): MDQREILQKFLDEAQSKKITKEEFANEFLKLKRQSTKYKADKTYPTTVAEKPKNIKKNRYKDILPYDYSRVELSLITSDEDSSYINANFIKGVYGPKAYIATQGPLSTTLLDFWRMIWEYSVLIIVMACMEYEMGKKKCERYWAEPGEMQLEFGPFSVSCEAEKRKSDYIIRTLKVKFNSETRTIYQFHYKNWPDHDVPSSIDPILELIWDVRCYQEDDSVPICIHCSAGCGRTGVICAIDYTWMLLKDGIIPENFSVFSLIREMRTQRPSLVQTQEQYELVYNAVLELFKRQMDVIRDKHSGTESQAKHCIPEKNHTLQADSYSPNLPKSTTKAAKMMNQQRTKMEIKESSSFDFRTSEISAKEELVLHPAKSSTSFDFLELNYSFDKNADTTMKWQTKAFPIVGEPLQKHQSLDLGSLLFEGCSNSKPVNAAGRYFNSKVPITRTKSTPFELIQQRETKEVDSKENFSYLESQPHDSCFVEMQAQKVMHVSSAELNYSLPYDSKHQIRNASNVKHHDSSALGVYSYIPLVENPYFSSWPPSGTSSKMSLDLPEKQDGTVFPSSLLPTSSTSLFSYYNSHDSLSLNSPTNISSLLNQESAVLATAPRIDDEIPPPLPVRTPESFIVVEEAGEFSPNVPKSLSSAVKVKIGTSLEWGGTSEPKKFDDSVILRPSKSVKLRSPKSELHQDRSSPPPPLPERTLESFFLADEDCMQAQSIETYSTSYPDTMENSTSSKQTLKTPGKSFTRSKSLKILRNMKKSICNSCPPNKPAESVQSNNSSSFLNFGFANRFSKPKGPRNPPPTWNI

[3] = target: T1, Tyrosine-protein phosphatase non-receptor type 22; assay type: functional; remark: listed apart in the source
[4] = target: 5-hydroxytryptamine receptor 5A (Homo sapiens, UniProt P47898); assay: Counterscreen for agonists of OPRM1-OPRD1 heterodimerization: luminescence-based cell-based high throughput dose response assay to identify agonists of 5-hydroxytryptamine (serotonin) 5A receptor (HTR5A). [Related pubchem assays (depositor defined):AID504326, AID504355, AID504692, AID504904, AID504905]; assay type: functional
[5] = target: T2, Tyrosyl-DNA phosphodiesterase 2 (Homo sapiens, UniProt O95551); assay: potency against TDP2 phosphodiesterase activity – biochemical, epi absorbance, IC50, dose response (AID 743297)
T2 sequence (O95551 whole entry): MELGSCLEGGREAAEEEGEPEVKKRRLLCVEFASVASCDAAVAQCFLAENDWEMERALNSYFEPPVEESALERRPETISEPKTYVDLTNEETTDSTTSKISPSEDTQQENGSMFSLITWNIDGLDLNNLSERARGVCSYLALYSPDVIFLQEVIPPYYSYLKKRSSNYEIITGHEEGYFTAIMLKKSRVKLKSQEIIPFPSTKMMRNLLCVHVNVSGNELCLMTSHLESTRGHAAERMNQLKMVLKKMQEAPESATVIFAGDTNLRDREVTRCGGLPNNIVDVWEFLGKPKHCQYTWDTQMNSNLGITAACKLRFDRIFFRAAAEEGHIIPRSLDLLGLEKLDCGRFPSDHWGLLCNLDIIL

[6] = blockers of bursicon-stimulated LGR2 cAMP reporter – cell-based, HEK293, CRE-luciferase reporter, cherry pick, set 2, dose response (AID 743343); assay type: functional;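 note: transfected cells were stimulated with diluted bursicon conditioned medium after compound addition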
[7] = target: Serine/threonine-protein phosphatase PP1-alpha catalytic subunit (Homo sapiens, UniProt P62136); assay: inhibition of protein phosphatase 1 activity – biochemical, fluorescence, dose response (AID 2394)
Chain of Serine/threonine-protein phosphatase PP1-alpha catalytic subunit (P62136 whole entry, canonical isoform): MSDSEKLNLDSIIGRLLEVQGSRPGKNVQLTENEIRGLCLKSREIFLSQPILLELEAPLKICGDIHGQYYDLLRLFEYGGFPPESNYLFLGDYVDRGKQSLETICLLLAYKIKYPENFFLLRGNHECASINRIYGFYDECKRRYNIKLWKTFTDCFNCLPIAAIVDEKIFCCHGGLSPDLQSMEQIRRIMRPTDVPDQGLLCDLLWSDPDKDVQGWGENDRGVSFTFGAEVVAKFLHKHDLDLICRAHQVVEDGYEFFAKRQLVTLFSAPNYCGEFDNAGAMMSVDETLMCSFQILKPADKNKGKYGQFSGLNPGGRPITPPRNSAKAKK

[8] = target: Phosphorylase b kinase gamma catalytic chain, liver/testis isoform (Homo sapiens, UniProt P15735); assay type: functional;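 note: PHKG2 measured as one member of a kinome-wide kinase panel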
Chain of Phosphorylase b kinase gamma catalytic chain, liver/testis isoform (P15735 whole entry, canonical isoform): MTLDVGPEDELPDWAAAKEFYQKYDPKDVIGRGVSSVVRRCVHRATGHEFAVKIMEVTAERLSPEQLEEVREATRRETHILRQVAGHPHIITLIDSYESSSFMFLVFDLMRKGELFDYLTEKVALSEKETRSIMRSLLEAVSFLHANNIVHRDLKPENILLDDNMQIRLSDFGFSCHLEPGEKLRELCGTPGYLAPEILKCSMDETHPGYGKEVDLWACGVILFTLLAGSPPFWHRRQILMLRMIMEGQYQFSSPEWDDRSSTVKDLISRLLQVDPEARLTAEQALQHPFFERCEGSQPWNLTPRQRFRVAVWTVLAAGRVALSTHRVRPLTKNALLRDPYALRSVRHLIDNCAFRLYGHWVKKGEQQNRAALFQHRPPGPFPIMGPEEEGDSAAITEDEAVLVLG

[9] = target: RAC-gamma serine/threonine-protein kinase (Homo sapiens, UniProt Q9Y243); assay type: functional
Chain of RAC-gamma serine/threonine-protein kinase (Q9Y243 whole entry): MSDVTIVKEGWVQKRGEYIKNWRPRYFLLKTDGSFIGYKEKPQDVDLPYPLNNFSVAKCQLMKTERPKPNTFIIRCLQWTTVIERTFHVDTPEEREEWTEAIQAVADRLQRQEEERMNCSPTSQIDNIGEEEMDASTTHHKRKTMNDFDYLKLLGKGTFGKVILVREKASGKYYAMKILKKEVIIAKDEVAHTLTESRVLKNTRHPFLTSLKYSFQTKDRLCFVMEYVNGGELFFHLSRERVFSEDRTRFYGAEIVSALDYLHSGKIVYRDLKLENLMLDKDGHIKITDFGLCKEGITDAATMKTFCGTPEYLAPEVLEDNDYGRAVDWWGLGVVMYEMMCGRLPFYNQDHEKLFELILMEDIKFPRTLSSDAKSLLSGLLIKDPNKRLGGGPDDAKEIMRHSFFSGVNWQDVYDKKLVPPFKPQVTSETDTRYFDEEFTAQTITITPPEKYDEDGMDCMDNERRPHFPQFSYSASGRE

[10] = target: 5'-AMP-activated protein kinase catalytic subunit alpha-1 (Homo sapiens, UniProt Q13131); assay type: functional
Chain of 5'-AMP-activated protein kinase catalytic subunit alpha-1 (Q13131 whole entry): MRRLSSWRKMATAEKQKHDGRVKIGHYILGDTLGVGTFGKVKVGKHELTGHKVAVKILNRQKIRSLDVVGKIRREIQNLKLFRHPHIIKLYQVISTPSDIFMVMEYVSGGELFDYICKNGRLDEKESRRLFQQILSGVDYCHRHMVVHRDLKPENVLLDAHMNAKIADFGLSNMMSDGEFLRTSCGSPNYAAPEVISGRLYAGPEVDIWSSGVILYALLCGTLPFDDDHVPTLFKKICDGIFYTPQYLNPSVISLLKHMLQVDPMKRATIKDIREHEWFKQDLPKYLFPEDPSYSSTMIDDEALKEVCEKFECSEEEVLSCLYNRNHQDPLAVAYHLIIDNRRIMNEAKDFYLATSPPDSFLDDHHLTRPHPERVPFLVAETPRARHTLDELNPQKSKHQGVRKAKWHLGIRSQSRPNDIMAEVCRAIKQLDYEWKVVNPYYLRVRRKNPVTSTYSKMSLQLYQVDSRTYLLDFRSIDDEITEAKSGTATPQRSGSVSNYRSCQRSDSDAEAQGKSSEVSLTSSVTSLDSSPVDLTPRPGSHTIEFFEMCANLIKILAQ

Aurora kinase A = Aurora kinase A (Homo sapiens, UniProt O14965); assay type: functional;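 note: value from the Navigating the Kinome kinase panel profiling, panel entry STK6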
Chain of Aurora kinase A (O14965 whole entry): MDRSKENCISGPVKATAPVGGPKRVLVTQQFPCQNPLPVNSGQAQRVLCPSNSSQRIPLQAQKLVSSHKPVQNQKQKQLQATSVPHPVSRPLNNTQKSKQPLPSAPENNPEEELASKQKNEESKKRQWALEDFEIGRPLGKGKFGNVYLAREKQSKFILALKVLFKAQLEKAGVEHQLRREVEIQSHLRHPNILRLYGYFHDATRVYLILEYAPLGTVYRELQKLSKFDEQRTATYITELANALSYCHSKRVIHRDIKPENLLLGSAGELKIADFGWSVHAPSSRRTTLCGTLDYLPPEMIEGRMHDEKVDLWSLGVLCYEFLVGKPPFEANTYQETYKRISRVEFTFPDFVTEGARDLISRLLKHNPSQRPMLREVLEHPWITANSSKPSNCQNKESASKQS

[11] = target: Serine/threonine-protein kinase PAK 1 (Homo sapiens, UniProt Q13153); assay type: functional
Chain of Serine/threonine-protein kinase PAK 1 (Q13153 whole entry): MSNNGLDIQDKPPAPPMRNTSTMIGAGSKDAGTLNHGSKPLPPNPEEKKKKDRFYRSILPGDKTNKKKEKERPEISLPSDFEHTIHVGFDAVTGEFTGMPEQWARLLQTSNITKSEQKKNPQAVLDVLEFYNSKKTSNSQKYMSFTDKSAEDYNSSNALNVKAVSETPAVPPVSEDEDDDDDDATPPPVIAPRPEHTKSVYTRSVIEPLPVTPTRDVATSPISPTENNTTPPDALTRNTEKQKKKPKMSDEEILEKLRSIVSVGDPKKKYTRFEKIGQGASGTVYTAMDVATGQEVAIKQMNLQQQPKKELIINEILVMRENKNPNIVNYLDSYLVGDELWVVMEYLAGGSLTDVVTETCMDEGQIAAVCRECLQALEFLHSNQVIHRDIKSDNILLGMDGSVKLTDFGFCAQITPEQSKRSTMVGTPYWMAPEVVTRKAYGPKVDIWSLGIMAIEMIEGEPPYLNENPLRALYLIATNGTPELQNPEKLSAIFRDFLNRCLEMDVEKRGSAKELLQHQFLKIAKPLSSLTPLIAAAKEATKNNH

[12] = target: Calcium/calmodulin-dependent protein kinase type II subunit delta (Homo sapiens, UniProt Q13557); assay type: functional
LIM domain kinase 1 = LIM domain kinase 1 (Homo sapiens, UniProt P53667); assay: Navigating the Kinome. Panel member name: LIMK1; assay type: functional
[13] = target: Testis-specific serine/threonine-protein kinase 1 (Homo sapiens, UniProt Q9BXA7); assay type: functional
[14] = target: Homeodomain-interacting protein kinase 2 (Homo sapiens, UniProt Q9H2X6); assay type: functional;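 note: measured within a kinome-wide kinase profiling panel, HIPK2 being one panel member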
[15] = target: Glycogen synthase kinase-3 alpha (Homo sapiens, UniProt P49840); assay type: functional;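 note: GSK3A result taken from a broad kinome-wide kinase panel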
[16] = target: Inhibitor of nuclear factor kappa-B kinase subunit alpha (Homo sapiens, UniProt O15111); assay type: functional
Chain of Inhibitor of nuclear factor kappa-B kinase subunit alpha (O15111 whole entry): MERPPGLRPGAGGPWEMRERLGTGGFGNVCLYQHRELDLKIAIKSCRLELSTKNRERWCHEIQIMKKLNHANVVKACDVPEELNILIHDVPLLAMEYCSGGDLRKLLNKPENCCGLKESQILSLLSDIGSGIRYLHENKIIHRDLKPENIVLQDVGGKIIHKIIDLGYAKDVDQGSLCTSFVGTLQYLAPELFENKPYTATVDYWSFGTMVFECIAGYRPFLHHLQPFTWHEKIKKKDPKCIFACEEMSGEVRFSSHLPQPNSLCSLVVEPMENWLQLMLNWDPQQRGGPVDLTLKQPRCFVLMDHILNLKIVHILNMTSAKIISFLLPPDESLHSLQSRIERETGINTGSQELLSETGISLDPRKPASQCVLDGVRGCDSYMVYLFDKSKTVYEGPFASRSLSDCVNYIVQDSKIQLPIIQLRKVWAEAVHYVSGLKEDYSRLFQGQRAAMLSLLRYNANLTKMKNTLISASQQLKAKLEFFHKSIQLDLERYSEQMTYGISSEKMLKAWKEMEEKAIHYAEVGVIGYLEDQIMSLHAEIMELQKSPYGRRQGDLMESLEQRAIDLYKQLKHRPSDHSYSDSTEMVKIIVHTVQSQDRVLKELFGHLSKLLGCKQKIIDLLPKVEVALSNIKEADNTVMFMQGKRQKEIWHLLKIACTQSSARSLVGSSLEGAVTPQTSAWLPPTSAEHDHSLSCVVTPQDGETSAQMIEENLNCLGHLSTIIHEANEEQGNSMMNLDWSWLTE

[17] = target: Maternal embryonic leucine zipper kinase (Homo sapiens, UniProt Q14680); assay type: functional
Chain of Maternal embryonic leucine zipper kinase (Q14680 whole entry): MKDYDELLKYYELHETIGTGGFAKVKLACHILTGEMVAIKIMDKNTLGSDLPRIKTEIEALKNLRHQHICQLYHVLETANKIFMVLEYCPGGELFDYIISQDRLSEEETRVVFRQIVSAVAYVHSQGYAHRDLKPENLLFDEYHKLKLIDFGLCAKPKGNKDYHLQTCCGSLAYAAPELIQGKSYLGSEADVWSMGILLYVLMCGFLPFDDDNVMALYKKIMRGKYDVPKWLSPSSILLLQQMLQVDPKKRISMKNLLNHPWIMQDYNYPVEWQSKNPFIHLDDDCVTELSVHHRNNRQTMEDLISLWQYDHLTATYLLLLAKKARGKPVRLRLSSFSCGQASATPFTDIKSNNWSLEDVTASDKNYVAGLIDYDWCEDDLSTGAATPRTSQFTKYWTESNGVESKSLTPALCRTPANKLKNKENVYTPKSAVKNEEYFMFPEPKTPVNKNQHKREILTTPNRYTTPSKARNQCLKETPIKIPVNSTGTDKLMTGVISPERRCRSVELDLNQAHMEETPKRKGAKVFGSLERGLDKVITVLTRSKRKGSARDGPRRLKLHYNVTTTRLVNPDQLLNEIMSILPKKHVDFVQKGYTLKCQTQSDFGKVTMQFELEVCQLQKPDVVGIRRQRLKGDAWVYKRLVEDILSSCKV

[18] = target: RAC-alpha serine/threonine-protein kinase (Homo sapiens, UniProt P31749); assay type: functional;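 note: AKT1 affinity measured as one member of a kinome-wide kinase profiling panel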
Chain of RAC-alpha serine/threonine-protein kinase (P31749 whole entry): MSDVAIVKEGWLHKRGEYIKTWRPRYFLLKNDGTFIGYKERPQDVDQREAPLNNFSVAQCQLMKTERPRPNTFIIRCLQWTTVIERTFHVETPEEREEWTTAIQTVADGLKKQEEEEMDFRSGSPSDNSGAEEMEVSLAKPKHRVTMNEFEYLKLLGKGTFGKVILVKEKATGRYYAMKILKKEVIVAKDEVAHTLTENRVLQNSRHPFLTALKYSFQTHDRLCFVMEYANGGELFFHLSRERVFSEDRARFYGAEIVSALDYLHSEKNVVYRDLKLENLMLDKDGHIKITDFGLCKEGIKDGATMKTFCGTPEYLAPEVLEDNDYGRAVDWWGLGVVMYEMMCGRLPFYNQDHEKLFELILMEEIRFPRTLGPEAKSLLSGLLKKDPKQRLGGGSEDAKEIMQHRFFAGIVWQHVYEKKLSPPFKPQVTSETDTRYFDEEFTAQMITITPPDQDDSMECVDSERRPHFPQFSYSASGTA

[19] = target: Rho-associated protein kinase 1 (Homo sapiens, UniProt Q13464); assay type: functional;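 note: measured within a broad kinome-wide panel profiling many kinases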
[20] = target: Cyclin-dependent kinase 1 (Homo sapiens, UniProt P06493); assay type: functional;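 note: Kinome-wide panel profiling, with the target listed as panel member CDC2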
[21] = target: Mitogen-activated protein kinase 12 (Homo sapiens, UniProt P53778); assay type: functional;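 note: measured as one member of a kinome-wide kinase profiling panel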
Chain of Mitogen-activated protein kinase 12 (P53778 whole entry): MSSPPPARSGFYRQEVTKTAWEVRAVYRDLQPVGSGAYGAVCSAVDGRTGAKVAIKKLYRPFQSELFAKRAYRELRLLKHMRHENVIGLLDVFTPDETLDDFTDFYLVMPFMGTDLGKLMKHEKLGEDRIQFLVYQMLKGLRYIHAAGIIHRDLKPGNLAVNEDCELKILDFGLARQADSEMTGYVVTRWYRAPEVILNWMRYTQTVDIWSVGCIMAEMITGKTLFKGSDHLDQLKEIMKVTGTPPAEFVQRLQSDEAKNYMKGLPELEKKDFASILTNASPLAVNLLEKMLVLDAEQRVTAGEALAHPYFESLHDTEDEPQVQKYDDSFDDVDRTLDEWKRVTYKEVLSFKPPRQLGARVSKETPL

[22] = target: T3, Lymphokine-activated killer T-cell-originated protein kinase (Homo sapiens, UniProt Q96KB5); assay type: functional;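 note: value comes from a kinase panel screen in which TOPK was one of the panel members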
T3 sequence (Q96KB5 whole entry): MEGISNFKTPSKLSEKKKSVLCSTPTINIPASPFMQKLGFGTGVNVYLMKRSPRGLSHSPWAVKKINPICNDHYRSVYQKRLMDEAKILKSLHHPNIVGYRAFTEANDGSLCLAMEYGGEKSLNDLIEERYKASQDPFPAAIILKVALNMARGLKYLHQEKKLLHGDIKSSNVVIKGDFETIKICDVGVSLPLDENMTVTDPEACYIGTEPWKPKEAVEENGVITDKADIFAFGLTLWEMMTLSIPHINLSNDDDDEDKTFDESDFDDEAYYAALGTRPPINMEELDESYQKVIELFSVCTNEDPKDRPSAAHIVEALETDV

Compound: CCCc1nc2c(=O)n(C)c(=O)nc-2n(C)n1
IC50 [1]: < 1.23 µM (not active) | IC50 [2]: 1.78 µM (active) | IC50 [3]: 1.6 µM (active) | EC50 [4]: > 92.5 µM (inactive) | IC50 [5]: 0.161 µM (active) | AC50 [6]: 5.47 µM (active)

IC50 [7]: > 67 µM (not active) | IC50 [5]: > 128 µM (inactive)
Compound: CC(=O)c1ccc(NC2=C(N3CCOCC3)C(=O)c3ccccc3C2=O)cc1

Ki [8]: > 5.01 µM (inactive) | Ki [9]: > 10 µM (inactive) | Ki [10]: > 5.01 µM (inactive) | Ki (Aurora kinase A): > 3.98 µM (inactive) | Ki [11]: > 10 µM (inactive) | Ki [12]: > 6.31 µM (inactive) | Ki (LIM domain kinase 1): 7.94 µM (active) | Ki [13]: 0.2 µM (active) | Ki [14]: > 3.16 µM (inactive) | Ki [15]: > 7.94 µM (inactive) | Ki [16]: > 3.98 µM (inactive) | Ki [17]: 0.158 µM (active) | Ki [18]: > 7.94 µM (inactive) | Ki [19]: > 10 µM (inactive) | Ki [20]: > 7.94 µM (inactive) | Ki [21]: > 6.31 µM (inactive)
Compound: COc1cc2ncn(-c3cc(OCc4ccccc4C(F)(F)F)c(C(N)=O)s3)c2cc1OC [GW843682X]
Ki [22]: > 10 µM (inactive)
